The supplement of paper PMC5908809

Columns and labels:
[1] = system: normal primary NK cells, pool 1 (3 donors) (IL-2 2.5 ng/mL); experiment: drug sensitivity score (DSS) (DSS units); higher = more sensitive; extreme values may be limits of the assay; conditions: 72 h
IMC-1 (IL-2 20 ng/mL) [2] = experiment: as above; conditions: 72 h
NK-YS (IL-2 2.5 ng/mL) [3] = experiment: as above; conditions: 72 h
YT (IL-2 2.5 ng/mL) [4] = experiment: as above; conditions: 72 h
DERL-7 (IL-2 2.5 ng/mL) [5] = experiment: as above; conditions: 72 h
[6] = system: normal primary NK cells, pool 2 (3 donors) (IL-2 2.5 ng/mL); experiment: as above; conditions: 72 h
NK-92 (IL-2 2.5 ng/mL) [7] = experiment: as above; conditions: 72 h
KHYG-1 (IL-2 2.5 ng/mL) [8] = experiment: as above; conditions: 72 h
[9] = system: normal primary NK cells, pool 1 (3 donors), resting (IL-2 0 ng/mL); experiment: as above; conditions: 72 h
[10] = system: normal primary NK cells, pool 3 (3 donors) (IL-2 2.5 ng/mL); experiment: as above; conditions: 72 h
NKL (IL-2 2.5 ng/mL) [11] = experiment: as above; conditions: 72 h
KAI3 (IL-2 2.5 ng/mL) [12] = experiment: as above; conditions: 72 h
SNK-6 (IL-2 2.5 ng/mL) [13] = experiment: as above; conditions: 72 h
[14] = system: normal NK cells expanded with K562-aAPC; experiment: as above; conditions: 72 h; IL-2 2.5 ng/mL
Protocol: (§1)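 Drug sensitivity and resistance testing on K562-aAPC-expanded normal NK cells: 5 concentrations (10-fold steps over a 10,000-fold range), 72 h at 37 °C, viability by CellTiter-Glo normalised to DMSO and benzethonium chloride controls; DSS from the fitted curve.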

[15] = system: normal NK cells expanded with K562-aAPC; experiment: percent inhibition of viability; higher = more inhibition; conditions: 72 h, IL-2 2.5 ng/mL
Protocol: as §1

[16] = system: normal primary NK cells, pool 1 (3 donors) (IL-2 2.5 ng/mL); experiment: as above; conditions: 72 h
IMC-1 (IL-2 20 ng/mL) [17] = experiment: as above; conditions: 72 h
NK-YS (IL-2 2.5 ng/mL) [18] = experiment: as above; conditions: 72 h
YT (IL-2 2.5 ng/mL) [19] = experiment: as above; conditions: 72 h
DERL-7 (IL-2 2.5 ng/mL) [20] = experiment: as above; conditions: 72 h
[21] = system: normal primary NK cells, pool 2 (3 donors) (IL-2 2.5 ng/mL); experiment: as above; conditions: 72 h
NK-92 (IL-2 2.5 ng/mL) [22] = experiment: as above; conditions: 72 h
KHYG-1 (IL-2 2.5 ng/mL) [23] = experiment: as above; conditions: 72 h
[24] = system: normal primary NK cells, pool 1 (3 donors), resting (IL-2 0 ng/mL); experiment: as above; conditions: 72 h
[25] = system: normal primary NK cells, pool 3 (3 donors) (IL-2 2.5 ng/mL); experiment: as above; conditions: 72 h
NKL (IL-2 2.5 ng/mL) [26] = experiment: as above; conditions: 72 h
KAI3 (IL-2 2.5 ng/mL) [27] = experiment: as above; conditions: 72 h
SNK-6 (IL-2 2.5 ng/mL) [28] = experiment: as above; conditions: 72 h

O=c1sn(-c2cccc3ccccc23)c(=O)n1Cc1ccccc1 [Tideglusib] (max concentration tested 3000 nM)
Conditions	drug sensitivity score
DERL-7 (IL-2 2.5 ng/mL) [5]	0
IMC-1 (IL-2 20 ng/mL) [2]	0.12
KAI3 (IL-2 2.5 ng/mL) [12]	1.59
KHYG-1 (IL-2 2.5 ng/mL) [8]	0
NK-92 (IL-2 2.5 ng/mL) [7]	0
NK-YS (IL-2 2.5 ng/mL) [3]	0
NKL (IL-2 2.5 ng/mL) [11]	0.46
SNK-6 (IL-2 2.5 ng/mL) [13]	0
YT (IL-2 2.5 ng/mL) [4]	0.04
[1]	0.12
[6]	0
[9]	4.87
[10]	0
[14]	0

percent inhibition of viability [%]
Conditions	0.3 nM	3 nM	30 nM	300 nM	3000 nM
DERL-7 (IL-2 2.5 ng/mL) [20]	0.33	8.56	5.78	9.73	-4.19
IMC-1 (IL-2 20 ng/mL) [17]	-9.15	-4.57	-3.56	-1.74	14.2
KAI3 (IL-2 2.5 ng/mL) [27]	4.52	0.51	-8.06	2.48	28.9
KHYG-1 (IL-2 2.5 ng/mL) [23]	0.24	-8.35	-8.09	-2.62	8.61
NK-92 (IL-2 2.5 ng/mL) [22]	-5	-12.7	-13.7	-11.8	-1.4
NK-YS (IL-2 2.5 ng/mL) [18]	-1.28	-6.26	-8.67	-1.58	10.1
NKL (IL-2 2.5 ng/mL) [26]	-0.96	-13.4	-11.3	4.69	13.7
SNK-6 (IL-2 2.5 ng/mL) [28]	-1.78	4.09	-8.27	7.39	0.93
YT (IL-2 2.5 ng/mL) [19]	0.91	-5.07	-4.89	-0.66	12.1
[15]	-6.95	-7.17	-3.75	-3.95	10.8
[16]	-1.89	-5.16	15.6	9.54	6.41
[21]	-9.87	-9.74	-4.05	-1.59	6.8
[24]	2.26	8.84	16.1	20.2	27.7
[25]	-6.37	-9.25	6.54	6.09	5.7

CC[C@]1(O)C[C@H]2CN(CCc3c([nH]c4ccccc34)[C@@](C(=O)OC)(c3cc4c(cc3OC)N(C=O)[C@H]3[C@@](O)(C(=O)OC)[C@H](OC(C)=O)[C@]5(CC)C=CCN6CC[C@]43[C@@H]65)C2)C1 [Vincristine] (max concentration tested 1000 nM)
Conditions	drug sensitivity score
DERL-7 (IL-2 2.5 ng/mL) [5]	30.1
IMC-1 (IL-2 20 ng/mL) [2]	30.1
KAI3 (IL-2 2.5 ng/mL) [12]	20.7
KHYG-1 (IL-2 2.5 ng/mL) [8]	30.5
NK-92 (IL-2 2.5 ng/mL) [7]	24.3
NK-YS (IL-2 2.5 ng/mL) [3]	24.4
NKL (IL-2 2.5 ng/mL) [11]	30.9
SNK-6 (IL-2 2.5 ng/mL) [13]	27.4
YT (IL-2 2.5 ng/mL) [4]	29.8
[1]	2.75
[6]	4.98
[9]	6.94
[10]	0.39
[14]	15.5

percent inhibition of viability [%]
Conditions	0.1 nM	1 nM	10 nM	100 nM	1000 nM
DERL-7 (IL-2 2.5 ng/mL) [20]	-4.76	-3.31	99.7	100	99.9
IMC-1 (IL-2 20 ng/mL) [17]	-6.56	-3.8	99.6	101	101
KAI3 (IL-2 2.5 ng/mL) [27]	-2.89	0.47	50	71.7	82.8
KHYG-1 (IL-2 2.5 ng/mL) [23]	-4.8	0.56	99.8	108	109
NK-92 (IL-2 2.5 ng/mL) [22]	0.11	-12.7	50.9	101	106
NK-YS (IL-2 2.5 ng/mL) [18]	-8.13	-3.11	72.6	72.9	87.9
NKL (IL-2 2.5 ng/mL) [26]	-4.74	5.25	97.5	99.9	101
SNK-6 (IL-2 2.5 ng/mL) [28]	-5.32	2.61	81.6	86.6	96.8
YT (IL-2 2.5 ng/mL) [19]	-6.99	-4.04	97.3	106	106
[15]	-6.33	-6.29	31.6	59	62.6
[16]	-8.19	4.79	8.62	16.3	23.7
[21]	-7.02	11	16.4	18.7	25.8
[24]	-21.8	5.88	11	33.2	38.4
[25]	-10	9.15	8.72	4.62	15.8

CCc1cnn2c(NCc3ccc[n+]([O-])c3)cc(N3CCCC[C@H]3CCO)nc12 [Dinaciclib] (max concentration tested 1000 nM)
Conditions	drug sensitivity score
DERL-7 (IL-2 2.5 ng/mL) [5]	22.5
IMC-1 (IL-2 20 ng/mL) [2]	23.7
KAI3 (IL-2 2.5 ng/mL) [12]	24.6
KHYG-1 (IL-2 2.5 ng/mL) [8]	23.6
NK-92 (IL-2 2.5 ng/mL) [7]	25.9
NK-YS (IL-2 2.5 ng/mL) [3]	28.3
NKL (IL-2 2.5 ng/mL) [11]	28.8
SNK-6 (IL-2 2.5 ng/mL) [13]	23.7
YT (IL-2 2.5 ng/mL) [4]	29.8
[1]	23.2
[6]	28.8
[9]	20
[10]	26.6
[14]	22.4

percent inhibition of viability [%]
Conditions	0.1 nM	1 nM	10 nM	100 nM	1000 nM
DERL-7 (IL-2 2.5 ng/mL) [20]	3.44	0.2	31.4	100	101
IMC-1 (IL-2 20 ng/mL) [17]	-1.04	-1.9	44	99.7	102
KAI3 (IL-2 2.5 ng/mL) [27]	5.48	7.7	54.5	108	110
KHYG-1 (IL-2 2.5 ng/mL) [23]	-3.45	-3.48	42.5	109	112
NK-92 (IL-2 2.5 ng/mL) [22]	-2.1	2.09	67.9	108	111
NK-YS (IL-2 2.5 ng/mL) [18]	-6.76	-1.49	87.6	104	109
NKL (IL-2 2.5 ng/mL) [26]	4.95	3.07	88.7	109	112
SNK-6 (IL-2 2.5 ng/mL) [28]	-7.12	-37	81.4	47.2	48.2
YT (IL-2 2.5 ng/mL) [19]	-2.44	2.09	93.8	108	111
[15]	-4.8	-2.24	30.3	101	102
[16]	-4.8	3.36	45.1	98.6	98.7
[21]	-6.55	2.06	90.3	97.1	94.6
[24]	-4.86	1	21.3	91.6	92.6
[25]	-4.86	2.55	72	99.3	100

Cc1ccc(Nc2nccc(N(C)c3ccc4c(C)n(C)nc4c3)n2)cc1S(N)(=O)=O [Pazopanib] (max concentration tested 10000 nM)
Conditions	drug sensitivity score
DERL-7 (IL-2 2.5 ng/mL) [5]	0
IMC-1 (IL-2 20 ng/mL) [2]	4.34
KAI3 (IL-2 2.5 ng/mL) [12]	1.17
KHYG-1 (IL-2 2.5 ng/mL) [8]	5.18
NK-92 (IL-2 2.5 ng/mL) [7]	5.68
NK-YS (IL-2 2.5 ng/mL) [3]	1.11
NKL (IL-2 2.5 ng/mL) [11]	1.08
SNK-6 (IL-2 2.5 ng/mL) [13]	15
YT (IL-2 2.5 ng/mL) [4]	1.79
[1]	0
[6]	0
[9]	0
[10]	0
[14]	0.02

percent inhibition of viability [%]
Conditions	1 nM	10 nM	100 nM	1000 nM	10000 nM
DERL-7 (IL-2 2.5 ng/mL) [20]	-0.93	9.12	-0.5	-6.76	-10.4
IMC-1 (IL-2 20 ng/mL) [17]	-4.11	-5.35	2.08	16.6	44.2
KAI3 (IL-2 2.5 ng/mL) [27]	-4.79	-5.2	1.76	10.1	18.6
KHYG-1 (IL-2 2.5 ng/mL) [23]	-2.36	-0.84	4.74	27.1	36.6
NK-92 (IL-2 2.5 ng/mL) [22]	3.54	3.74	11.9	27.6	33.7
NK-YS (IL-2 2.5 ng/mL) [18]	-0.74	0.29	6.42	12.1	15.1
NKL (IL-2 2.5 ng/mL) [26]	-16.9	-17.8	-11.3	13.6	14.8
SNK-6 (IL-2 2.5 ng/mL) [28]	7.81	14.5	36.6	53.3	48.6
YT (IL-2 2.5 ng/mL) [19]	0.54	3.53	8.86	14.9	16.6
[15]	3.24	-2.13	1.77	5.99	11.2
[16]	-5.94	2.19	-7.48	-8.52	-1.45
[21]	-17.7	-14.4	-13.5	-2.24	2.28
[24]	8.82	5.43	-6.14	-6.41	4.16
[25]	-10.1	-9.49	-4.17	-3.69	-2.21
